Literature values as cited in patent publication US20080085892A1, “Liquid dosage form of acetaminophen” (priority 2006, published 2008).

Q: For `COc1ccccc1OCC(O)CO` (centres unmarked) [Guaifenesin, 3-(2-methoxyphenoxy)-1,2-propanediol], which solubility in water is on record?
A: about 5 % wt.

Q: What about the “solubility in water (in words)” value of the same compound?
A: slightly soluble
